We go through 29 molecules from patent publication US11649255B2, “Indazoles as hematopoietic progenitor kinase 1 (HPK1) inhibitors and methods using same” (1st Biotherapeutics, Inc., priority 2020, dated 2023).

pIC50: −log10 of the molar value.

In general, pIC50 refers to the negative decadic logarithm of the IC50, by convention in mol/L.

Sequence of recombinant human HPK1 (Q92918 whole entry): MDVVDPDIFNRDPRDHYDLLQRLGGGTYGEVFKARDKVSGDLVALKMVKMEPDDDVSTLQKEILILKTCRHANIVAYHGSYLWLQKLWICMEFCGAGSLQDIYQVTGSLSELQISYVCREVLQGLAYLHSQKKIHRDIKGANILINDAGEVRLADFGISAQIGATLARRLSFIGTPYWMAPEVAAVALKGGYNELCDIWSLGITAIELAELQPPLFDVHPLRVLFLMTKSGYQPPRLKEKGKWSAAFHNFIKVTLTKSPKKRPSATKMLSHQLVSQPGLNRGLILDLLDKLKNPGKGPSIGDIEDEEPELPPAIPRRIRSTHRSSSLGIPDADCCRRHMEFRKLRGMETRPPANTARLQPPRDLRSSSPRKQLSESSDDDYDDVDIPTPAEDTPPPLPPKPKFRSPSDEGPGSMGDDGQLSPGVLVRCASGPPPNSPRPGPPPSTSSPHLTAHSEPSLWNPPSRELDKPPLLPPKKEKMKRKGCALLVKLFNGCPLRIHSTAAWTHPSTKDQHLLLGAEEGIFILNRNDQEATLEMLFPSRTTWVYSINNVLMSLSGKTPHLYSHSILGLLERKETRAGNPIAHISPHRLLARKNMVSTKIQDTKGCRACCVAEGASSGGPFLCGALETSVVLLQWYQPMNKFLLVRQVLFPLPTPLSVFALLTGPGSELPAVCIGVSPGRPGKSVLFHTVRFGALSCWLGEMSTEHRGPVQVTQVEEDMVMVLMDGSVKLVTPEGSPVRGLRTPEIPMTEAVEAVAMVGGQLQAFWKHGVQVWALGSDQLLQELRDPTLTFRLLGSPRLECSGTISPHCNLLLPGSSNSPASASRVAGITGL

For the assay, the target named is recombinant human HPK1 (Homo sapiens (Human), UniProt Q92918). Description: HPK1 kinase assay (ADP-Glo). The format is biochemical. The note with it: 25 μM ATP, MBP substrate. In outline:
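Activity was read as ADP formed, detected by ADP-Glo luminescence after the reaction of 5 ng recombinant human HPK1 with MBP and ATP (stocks 0.5 μg/μl and 25 μM) for 40 min at 30 °C. Buffer was Tris pH 7.5 with MgCl2, BSA and DTT, with compound in 0.5% DMSO. IC50 came from inhibition curves.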
As to `CCc1c(F)c(SCC(=O)N(C)C)c2[nH]ncc2c1-c1ccc2nc(NC(=O)[C@@H]3C[C@@H]3F)sc2n1` [Example 166, (1S,2S)-N-(5-(7-((2-(dimethylamino)-2-oxoethyl)thio)-5-ethyl-6-fluoro-1H-indazol-4-yl)thiazolo[5,4-b]pyridin-2-yl)-2-fluorocyclopropane-1-carboxamide], the negative logarithm of the IC50 (pIC50) is over 7.00.

With `CCc1c(F)cc2[nH]ncc2c1-c1ccc2nc(NC(=O)[C@@H]3C[C@@H]3F)cn2c1` [Example 294, (1S,2S)-N-(6-(5-ethyl-6-fluoro-1H-indazol-4-yl)imidazo[1,2-a]pyridin-2-yl)-2-fluorocyclopropane-1-carboxamide], the pIC50 was over 7.00.

As for `O=C(Nc1nc2ccc(-c3c(O)ccc4[nH]ncc34)cc2s1)C1CC1` [Example 27, N-(6-(5-hydroxy-1H-indazol-4-yl)benzo[d]thiazol-2-yl)cyclopropanecarboxamide], the negative-log IC50 (pIC50) is under 6.00.

`Nc1c(F)cc2[nH]ncc2c1-c1ccc2nc(NC(=O)[C@@H]3C[C@@H]3F)sc2n1` [Example 151, (1S,2S)-N-(5-(5-amino-6-fluoro-1H-indazol-4-yl)thiazolo[5,4-b]pyridin-2-yl)-2-fluorocyclopropane-1-carboxamide]: the negative logarithm of the IC50 (pIC50) was under 6.00.

In the case of `O=C(Nc1cc2cc(-c3c(Cl)c(F)c(N4CC[S+]([O-])CC4)c4[nH]ncc34)ccn2n1)[C@@H]1C[C@@H]1F` [Example 635, (1S,2S)-N-(5-(5-chloro-6-fluoro-7-(1-oxidothiomorpholino)-1H-indazol-4-yl)pyrazolo[1,5-a]pyridin-2-yl)-2-fluorocyclopropane-1-carboxamide], the negative-log IC50 (pIC50) is over 7.00.

For the molecule `Cc1c(F)cc2[nH]ncc2c1-c1ccc2nc(NC(=O)[C@@H]3C[C@@H]3F)sc2c1CCc1ccncc1` [Example 65, (1S,2S)-2-fluoro-N-(6-(6-fluoro-5-methyl-1H-indazol-4-yl)-7-(2-(pyridin-4-yl)ethyl)benzo[d]thiazol-2-yl)cyclopropane-1-carboxamide], the negative logarithm of the IC50 (pIC50) is over 7.00.

As for `CN(c1ccncn1)c1c(F)c(Cl)c(-c2ccc3nc(NC(=O)[C@@H]4C[C@@H]4F)cn3c2)c2cn[nH]c12` [Example 348, (1S,2S)-N-(6-(5-chloro-6-fluoro-7-(methyl(pyrimidin-4-yl)amino)-1H-indazol-4-yl)imidazo[1,2-a]pyridin-2-yl)-2-fluorocyclopropane-1-carboxamide], the pIC50 is over 7.00.

As for `CN(CCN)c1c(F)c(Cl)c(-c2ccc3nc(NC(=O)[C@@H]4C[C@@H]4F)sc3c2)c2cn[nH]c12` [Example 82, (1S,2S)-N-(6-(7-((2-aminoethyl)(methyl)amino)-5-chloro-6-fluoro-1H-indazol-4-yl)benzo[d]thiazol-2-yl)-2-fluorocyclopropane-1-carboxamide], the pIC50 was over 7.00.

`CCc1c(F)c(N(C)CC)c2[nH]ncc2c1-c1ccc2nc(NC(=O)[C@@H]3C[C@@H]3F)sc2n1` [Example 200, (1S,2S)-N-(5-(5-ethyl-7-(ethyl(methyl)amino)-6-fluoro-1H-indazol-4-yl)thiazolo[5,4-b]pyridin-2-yl)-2-fluorocyclopropane-1-carboxamide]: the pIC50 was over 7.00.

`O=C(O)c1c(F)c(Cl)c(-c2ccc3nc(NC(=O)[C@@H]4C[C@@H]4F)cn3c2)c2cn[nH]c12` [Example 314, 5-chloro-6-fluoro-4-(2-((1S,2S)-2-fluorocyclopropane-1-carboxamido)imidazo[1,2-a]pyridin-6-yl)-1H-indazole-7-carboxylic acid]: the pIC50 is under 6.00.

Take `COCC1CN(c2c(F)c(Cl)c(-c3ccn4nc(NC(=O)[C@@H]5C[C@@H]5F)cc4c3)c3cn[nH]c23)C1` [Example 627, (1S,2S)-N-(5-(5-chloro-6-fluoro-7-(3-(methoxymethyl)azetidin-1-yl)-1H-indazol-4-yl)pyrazolo[1,5-a]pyridin-2-yl)-2-fluorocyclopropane-1-carboxamide]: the pIC50 was over 7.00.

In the case of `COc1ccc2[nH]ncc2c1-c1ccc2nc(NC(=O)C3CC3)sc2c1` [Example 24, N-(6-(5-methoxy-1H-indazol-4-yl)benzo[d]thiazol-2-yl)cyclopropanecarboxamide], the pIC50 was 6.30 to 7.00.

Take `O=C(Nc1nc2ccc(-c3c(Cl)c(F)c(F)c4[nH]ncc34)nc2s1)[C@@H]1C[C@@H]1F` [Example 208, (1S,2S)-N-(5-(5-chloro-6,7-difluoro-1H-indazol-4-yl)thiazolo[5,4-b]pyridin-2-yl)-2-fluorocyclopropane-1-carboxamide 2,2,2-trifluoroacetate]: the pIC50 was over 7.00.

Turning to `CC(=O)Nc1c(F)c(Cl)c(-c2ccc3nc(NC(=O)[C@@H]4C[C@@H]4F)cn3c2)c2cn[nH]c12` [Example 301], the pIC50 is over 7.00.

`CSc1c(F)cc2[nH]ncc2c1-c1cc2sc(NC(=O)[C@@H]3C[C@@H]3F)nc2cn1` [Example 219, (1S,2S)-2-fluoro-N-(6-(6-fluoro-5-(methylthio)-1H-indazol-4-yl)thiazolo[4,5-c]pyridin-2-yl)cyclopropane-1-carboxamide]: the negative-log IC50 (pIC50) is 6.30 to 7.00.

On to `O=C(Nc1cn2cc(-c3c(Cl)c(F)c(Cn4cncn4)c4[nH]ncc34)ccc2n1)[C@@H]1C[C@@H]1F` [Example 385, (1S,2S)-N-(6-(7-((1H-1,2,4-triazol-1-yl)methyl)-5-chloro-6-fluoro-1H-indazol-4-yl)imidazo[1,2-a]pyridin-2-yl)-2-fluorocyclopropane-1-carboxamide], for which the pIC50 is over 7.00.

Regarding `O=C(Nc1cc2cc(-c3c(Cl)c(F)c(Nc4ncccn4)c4[nH]ncc34)ccn2n1)[C@@H]1C[C@@H]1F` [Example 601, (1S,2S)-N-(5-(5-chloro-6-fluoro-7-(pyrimidin-2-ylamino)-1H-indazol-4-yl)pyrazolo[1,5-a]pyridin-2-yl)-2-fluorocyclopropane-1-carboxamide], the negative-log IC50 (pIC50) was over 7.00.

As to `CC(=O)c1ccc2[nH]ncc2c1-c1ccc2nc(NC(=O)C3CC3)cn2c1` [Example 239, N-(6-(5-acetyl-1H-indazol-4-yl)imidazo[1,2-a]pyridin-2-yl)cyclopropanecarboxamide], the pIC50 is over 7.00.

`CCN(C)c1c(F)c(SC)c(-c2ccc3nc(NC(=O)[C@@H]4C[C@@H]4F)sc3c2)c2cn[nH]c12` [Example 138, (1S,2S)-N-(6-(7-(ethyl(methyl)amino)-6-fluoro-5-(methylthio)-1H-indazol-4-yl)benzo[d]thiazol-2-yl)-2-fluorocyclopropane-1-carboxamide]: the pIC50 was over 7.00.

As to `O=C(Nc1nc2ccc(-c3c(Cn4cccn4)ccc4[nH]ncc34)cc2s1)[C@@H]1C[C@@H]1F` [Example 38, (1S,2S)-N-(6-(5-((1H-pyrazol-1-yl)methyl)-1H-indazol-4-yl)benzo[d]thiazol-2-yl)-2-fluorocyclopropane-1-carboxamide], the pIC50 was under 6.00.

With `CC(NC(=O)C(F)(F)F)c1c(F)c(Cl)c(-c2ccc3nc(NC(=O)[C@@H]4C[C@@H]4F)cn3c2)c2cn[nH]c12` (stereo partly drawn) [Example 428, (1S,2S)-N-(6-(5-chloro-6-fluoro-7-(1-(2,2,2-trifluoroacetamido)ethyl)-1H-indazol-4-yl)imidazo[1,2-a]pyridin-2-yl)-2-fluorocyclopropane-1-carboxamide], the pIC50 is over 7.00.

Turning to `O=C(Nc1cc2cc(-c3c(Cl)c(F)c(N4CCS(=O)(=O)CC4)c4[nH]ncc34)ccn2n1)[C@@H]1C[C@@H]1F` [Example 628, (1S,2S)-N-(5-(5-chloro-7-(1,1-dioxidothiomorpholino)-6-fluoro-1H-indazol-4-yl)pyrazolo[1,5-a]pyridin-2-yl)-2-fluorocyclopropane-1-carboxamide], the negative logarithm of the IC50 (pIC50) is over 7.00.

In the case of `COC[C@H](C)c1c(F)c(Cl)c(-c2ccn3nc(NC(=O)[C@@H]4C[C@@H]4F)cc3c2)c2cn[nH]c12` [Example 655, (1S,2S)-N-(5-(5-chloro-6-fluoro-7-((R)-1-methoxypropan-2-yl)-1H-indazol-4-yl)pyrazolo[1,5-a]pyridin-2-yl)-2-fluorocyclopropane-1-carboxamide], the negative logarithm of the IC50 (pIC50) was over 7.00.

Turning to `O=C(Nc1cn2cc(-c3c(Cl)c(F)c(N4CCC4)c4[nH]ncc34)ccc2n1)[C@@H]1C[C@@H]1F` [Example 283, (1S,2S)-N-(6-(7-(azetidin-1-yl)-5-chloro-6-fluoro-1H-indazol-4-yl)imidazo[1,2-a]pyridin-2-yl)-2-fluorocyclopropane-1-carboxamide], the negative logarithm of the IC50 (pIC50) was over 7.00.

For `CC(=O)c1ccc2[nH]ncc2c1-c1ccn2nc(NC(=O)[C@@H]3C[C@@H]3F)cc2c1` [Example 453, (1S,2S)-N-(5-(5-acetyl-1H-indazol-4-yl)pyrazolo[1,5-a]pyridin-2-yl)-2-fluorocyclopropane-1-carboxamide], the negative-log IC50 (pIC50) is 6.00 to 6.30.

`N#CCNc1c(F)c(Cl)c(-c2ccc3nc(NC(=O)[C@@H]4C[C@@H]4F)cn3c2)c2cn[nH]c12` [Example 366, (1S,2S)-N-(6-(5-chloro-7-((cyanomethyl)amino)-6-fluoro-1H-indazol-4-yl)imidazo[1,2-a]pyridin-2-yl)-2-fluorocyclopropane-1-carboxamide]: the pIC50 is over 7.00.

Regarding `CN(C)C(=O)c1c(F)cc(-c2ccc3nc(NC(=O)[C@@H]4C[C@@H]4F)sc3c2)c2cn[nH]c12` [Example 144, 6-fluoro-4-(2-((1S,2S)-2-fluorocyclopropane-1-carboxamido)benzo[d]thiazol-6-yl)-N,N-dimethyl-1H-indazole-7-carboxamide], the negative-log IC50 (pIC50) was 6.30 to 7.00.

As for `Cc1c(F)c(SCCO)c2[nH]ncc2c1-c1ccc2nc(NC(=O)[C@@H]3C[C@@H]3F)sc2n1` [Example 163, (1S,2S)-2-fluoro-N-(5-(6-fluoro-7-((2-hydroxyethyl)thio)-5-methyl-1H-indazol-4-yl)thiazolo[5,4-b]pyridin-2-yl)cyclopropane-1-carboxamide], the negative logarithm of the IC50 (pIC50) was over 7.00.

As to `C=Cc1c(F)c(Cl)c(-c2ccc3nc(NC(=O)[C@@H]4C[C@@H]4F)sc3c2)c2cn[nH]c12` [Example 61, (1S,2S)-N-(6-(5-chloro-6-fluoro-7-vinyl-1H-indazol-4-yl)benzo[d]thiazol-2-yl)-2-fluorocyclopropane-1-carboxamide], the pIC50 is over 7.00.
